According to article PMC5218480 (PLoS ONE, 2017):

Tested on: MV-4-11 cells
Test: Gene expression microarray analysis (Affymetrix PrimeView) and GSEA
Type: cell-based, human
Conditions: MV-4-11, 48 hours, 1 μM each

For Nc1ccc(-c2cccs2)cc1NC(=O)c1ccc2c(c1)cc(C1CC1)n2CCN1CCOCC1 [ACY-1035], which “genes up-regulated greater than 2-fold relative to vehicle control” value is on record?
The value was 386 genes.
